From ChEMBL document CHEMBL4811249, “Semisynthesis of Dolabellane Diterpenes: Oxygenated Analogues with Increased Activity against Zika and Chikungunya Viruses” (J Nat Prod, 2021) come the findings set out here.

Each structure is given as a SMILES string. Activity calls are given as the source filed them. No cut-off for these calls is given here. A value given as a limit tells only on which side of the number the result lay.

A word on the CC50: it is the concentration at which the toxic effect on the cells reaches its halfway point. What is called inhibition is the change of the read-out against control, counted positive when it falls. The EC50 is the concentration that produces a half-maximal response.

The nature of data set [1]: (§1) Cytotoxicity against African green monkey Vero cells by MTT assay. It counts as cell-based. The conditions noted are these: chlorocebus sabaeus, Vero cells. For orientation: Tetrazolium assays rely on reduction of a dye to a coloured formazan, in cell work by metabolically active cells.
Data set [2] is described as follows: Selectivity index, ratio of CC50 for African green monkey Vero cells to EC50 for CHIKV. It is filed as toxicity. The note with it: read-out: Ratio CC50/EC50.
The test system of data set [3] is Chikungunya virus. As to the kind of experiment: Antiviral activity against CHIKV infected in African green monkey Vero cells assessed as inhibition of viral replication at 20 uM measured after 4 days relative to control. The conditions noted are these: 96 h, time 4 day; for inhibition at 20 µM: Chikungunya virus, Vero. It counts as functional.
Data set [4] relates to Zika virus. Nature of the data set: Antiviral activity against Zika virus infected in African green monkey Vero cells assessed as inhibition of viral replication at 20 uM measured after 4 days relative to control. The note with it: 96 h, time 4 day; for inhibition at 20 µM: Zika virus, Vero; for inhibition (INH): 20 µM. It counts as functional.
Data set [5] relates to Chikungunya virus. As to the kind of experiment: Antiviral activity against CHIKV infected in African green monkey Vero cells assessed as reduction in viral replication by measuring viral titre after 72 hrs by plaque reduction assay. It counts as functional, organism-based.
The nature of data set [6]: Selectivity index, ratio of CC50 for African green monkey Vero cells to EC50 for Zika virus. It is filed as toxicity. The note with it: read-out: Ratio CC50/EC50.
Data set [7] has as its system Zika virus. Nature of the data set: Antiviral activity against Zika virus infected in African green monkey Vero cells assessed as reduction in viral replication by measuring viral titre after 72 hrs by plaque reduction assay. It counts as functional, organism-based. (Plaque reduction counts the foci of infection that form in a cell layer.)
For data set [8], the system named is Zika virus. Nature of the data set: Virucidal activity against Zika virus infected in African green monkey Vero cells at 20 uM measured after 4 hrs relative to control. It is filed as functional.
In a further data set the test system is Vero. The data set is described as §1. It is filed as cell-based. The conditions noted are these: chlorocebus sabaeus, vero.
Data set [9] deals with Chikungunya virus. Nature of the data set: Virucidal activity against CHIKV infected in African green monkey Vero cells at 5 to 20 uM measured after 4 hrs. It counts as functional, organism-based. The note with it: dose 5-20 µM.
The subject of data set [10] is Chikungunya virus. As to the kind of experiment: Antiviral activity against CHIKV infected in African green monkey Vero cells assessed as inhibition of viral adsorption at 20 uM measured after 4 days by crystal violet staining based assay relative to control. It is filed as functional. The note with it: 96 h, time 4 day.
In data set [11] the test system is Zika virus. Nature of the data set: Antiviral activity against Zika virus infected in African green monkey Vero cells assessed as inhibition of viral adsorption at 20 uM measured after 4 days by crystal violet staining based assay relative to control. It is filed as functional. The note with it: 96 h, time 4 day.

In the case of `CC(C)=C1C(=O)C[C@@]2(C)C/C=C(\CO)CC[C@H]3O[C@]3(C)CC[C@H]12`, the CC50 in data set [1] came to 800 µM. Moreover, in [2], the selectivity ratio is 61. Also, the inhibition at 20 µM with Chikungunya virus [3] was 71%; with Zika virus [4] it was 60%. Besides, the EC50 with Chikungunya virus [5] came to 13 µM.

As to `CC(C)=C1[C@H]2CC[C@@]3(C)O[C@@H]3CC/C(C)=C/C[C@]2(C)C[C@@H]1O`, in [6], the selectivity ratio came out at 480. In addition, the EC50 with Zika virus [7] came out at 1.2 µM. The compound also gave an Activity in the data set with Zika virus [8] of 80%. Further, in data set [1], the CC50 came out at 580 µM. Also, the inhibition at 20 µM with Chikungunya virus [3] was determined as 45%; in the data set with Zika virus [4] it was 99%.

Turning to `CC(=O)OC/C1=C\CC/C(C)=C/C[C@]2(C)CC(=O)C(=C(C)C)[C@H]2CC1`, in [1], half-maximal cytotoxicity (CC50) was put at 250 µM. Besides, the inhibition at 20 µM with Chikungunya virus [3] was 0%; in the data set on Zika virus [4], 30%.

With `COC1(C)CC[C@@H](O)[C@]2(C)CC[C@@H]3C(=C(C)C)C(=O)C[C@@]3(C)C[C@@H]12` (relative stereo; 19), in the data set on Vero, the CC50 is 650 µM. In addition, the figures for the “inhibition (INH)” value in the data set on Chikungunya virus [3] (20 µM) and in the data set with Zika virus [4] were 40% and 59%, respectively.

For `CC(C)=C1[C@H]2CC/C(C)=C/CC/C(C)=C/C[C@]2(C)C[C@@H]1O`, the CC50 in data set [1] is 190 µM. Besides, the inhibition at 20 µM in the data set with Chikungunya virus [3] stood at 0%; in the data set with Zika virus [4], 51%.

Compound `CC(C)=C1C(=O)C[C@@]2(C)C[C@H]3O[C@]3(C)CC[C@H]3O[C@]3(C)CC[C@H]12` showed a CC50 in data set [1] of 960 µM. Further, the inhibition at 20 µM in the data set on Chikungunya virus [3] stood at 0%; in the data set with Zika virus [4], 56%.

`CC1=CC[C@@H](O)[C@]2(C)CC[C@@H]3C(=C(C)C)C(=O)C[C@@]3(C)C[C@@H]12`: the selectivity ratio in data set [6] was found to be 280. Also, in the data set on Zika virus [7], the EC50 came to 2.1 µM. Also, in data set [1], it took 580 µM to reach half-maximal cytotoxicity (CC50). Also, the figures for the inhibition at 20 µM in the data set with Chikungunya virus [3] and in the data set with Zika virus [4] were 65% and 99%, respectively.

Turning to `CC(C)=C1[C@H]2CC[C@@]3(C)O[C@@H]3CC[C@@]3(C)O[C@@H]3C[C@]2(C)C[C@@H]1O`, the values for the selectivity ratio in data set [6] and in data set [2] were 110 and 1400, respectively. Also, the concentration giving a half-maximal response (EC50) worked out at 8.9 µM with Zika virus [7] and 0.7 µM in the data set with Chikungunya virus [5]. In data set [1], this compound returned a CC50 of 1000 µM. In addition, the inhibition at 20 µM in the data set with Chikungunya virus [3] was determined as 98%; in the data set on Zika virus [4], 81%.

In data set [1], `CC(C)=C1[C@H](O)C[C@@]2(C)C/C=C(\C)CC[C@H]3O[C@]3(C)CC[C@H]12` registered a CC50 of 430 µM. For the same compound, the inhibition at 20 µM in the data set with Chikungunya virus [3] was 33%; with Zika virus [4] it was 30%.

As to `CC(=O)O[C@@H]1C[C@@]2(C)C/C=C(\C)CC/C=C(\C)CC[C@@H]2C1=C(C)C`, the result in the data set with Chikungunya virus [9] was Active. The compound also returned a CC50 in [1] of 100 µM. In addition, in data set [2], the selectivity ratio came to 83. In addition, the inhibition at 20 µM was 99% with Chikungunya virus [3], 62% with Zika virus [4] and more than 90% with Chikungunya virus [10]. The EC50 with Chikungunya virus [5] is 1.2 µM.

The compound `CC(C)=C1[C@H](O)C[C@@]2(C)C[C@H]3O[C@]3(C)CC[C@H]3O[C@]3(C)CC[C@H]12` displayed a CC50 in data set [1] of 960 µM. Also, the inhibition at 20 µM in the data set on Chikungunya virus [3] is 44%; in the data set on Zika virus [4] it was 49%.

Turning to `C[C@H]1/C=C/[C@@]2(C)CC[C@@H](C(C)(C)O)[C@@H]2[C@@H](O)C[C@](C)(O)/C=C/C1`, the CC50 in data set [1] turned out to be 400 µM. The inhibition at 20 µM in the data set with Chikungunya virus [3] is 35%; in the data set on Zika virus [4] it was 50%.

Turning to `CC(C)=C1C(=O)C[C@@]2(C)C/C=C(\C)CC[C@H]3O[C@]3(C)CC[C@H]12`, the outcome in the data set on Chikungunya virus [9] was Active. Also, the CC50 in data set [1] is 530 µM. In data set [2], the selectivity ratio amounted to 440. The inhibition at 20 µM is 99% with Chikungunya virus [3], 38% in the data set on Zika virus [4] and more than 90% with Chikungunya virus [10]. Besides, the EC50 with Chikungunya virus [5] amounted to 1.2 µM.

`COC1(C)CC[C@@H](O)[C@]2(C)CC[C@@H]3C(=C(C)C)C(=O)C[C@@]3(C)C[C@@H]12` (relative stereo; 18): the selectivity ratio in data set [6] was 410. Besides, in the data set with Zika virus [7], the EC50 turned out to be 1.8 µM. The compound further displayed a CC50 in [1] of 730 µM. The inhibition at 20 µM was 25% in the data set with Chikungunya virus [3] and more than 90% with Zika virus [11]. The “inhibition (INH)” value in the data set with Zika virus [4] turned out to be 100%.

Compound `C=C(C)C1=CC[C@@]2(C)C[C@H]3O[C@]3(C)CC[C@H]3O[C@]3(C)CC[C@H]12` displayed a CC50 in [1] of 480 µM. Besides, the inhibition at 20 µM in the data set on Chikungunya virus [3] is 0%; in the data set with Zika virus [4], 60%.

The compound `C=C(C)C1=CC[C@@]2(C)C/C=C(\C)CC/C=C(\CO)CC[C@H]12` gave a CC50 in data set [1] of 600 µM. Also, the inhibition at 20 µM with Chikungunya virus [3] was determined as 0%; in the data set on Zika virus [4] it was 61%.

In turn, `CC(C)=C1C(=O)C[C@@]2(C)C/C=C(\C)CC/C=C(\C=O)CC[C@H]12` displayed a CC50 in data set [1] of 100 µM. The inhibition at 20 µM was determined as 29% in the data set on Chikungunya virus [3] and 0% in the data set on Zika virus [4].

Consider `CC(C)=C1C(=O)C[C@@]2(C)C/C=C(\C=O)CC[C@H]3O[C@]3(C)CC[C@H]12`, for which, in [6], the selectivity ratio came to 830. Moreover, the EC50 in the data set on Zika virus [7] turned out to be 0.9 µM. Also, the Activity in the data set on Zika virus [8] is given as 90%. In addition, the CC50 in [1] stood at 750 µM. The inhibition at 20 µM in the data set on Chikungunya virus [3] worked out at 39%; in the data set with Zika virus [4], 99%.

In turn, `CC(C)=C1C(=O)C[C@@]2(C)C[C@H]3O[C@]3(C)CC/C=C(\C)CC[C@H]12` had a CC50 in data set [1] of 470 µM. In [2], the selectivity ratio stood at 50. For the same compound, the inhibition at 20 µM in the data set with Chikungunya virus [3] is 82%; in the data set on Zika virus [4], 65%. Further, the EC50 in the data set on Chikungunya virus [5] is 9.5 µM.

In the case of `NC(=O)c1ncn([C@@H]2O[C@H](CO)[C@@H](O)[C@H]2O)n1` [RIBAVIRIN], the inhibition at 20 µM in the data set on Chikungunya virus [3] is 97%; with Zika virus [4], 93%.

In the case of `CC(C)=C1C(=O)C[C@@]2(C)C/C=C(\C)CC/C=C(\C)CC[C@H]12` [DOLABELLANE], the CC50 in data set [1] worked out at 150 µM. In addition, the inhibition at 20 µM in the data set on Chikungunya virus [3] and in the data set on Zika virus [4] was 0% throughout.
